pIC50: −log10 of the molar value.
What was measured:
BRG-1 = BRG-1 (Homo sapiens, UniProt P51532); test: ATPase catalytic activity assay (ADP-Glo), BRG-1; settings: for Emax: 1 h, read-out: BRG1 Max % Inhibition, ADP-Glo, 30 nM BRG-1, 400 μM ATP
BRM = BRM (Homo sapiens, UniProt P51531); test: ATPase catalytic activity assay (ADP-Glo), BRM; settings: 30 nM BRM, 400 μM ATP; for IC50: BRM ATPase: IC50 (uM)
Chain of BRM (P51531 whole entry): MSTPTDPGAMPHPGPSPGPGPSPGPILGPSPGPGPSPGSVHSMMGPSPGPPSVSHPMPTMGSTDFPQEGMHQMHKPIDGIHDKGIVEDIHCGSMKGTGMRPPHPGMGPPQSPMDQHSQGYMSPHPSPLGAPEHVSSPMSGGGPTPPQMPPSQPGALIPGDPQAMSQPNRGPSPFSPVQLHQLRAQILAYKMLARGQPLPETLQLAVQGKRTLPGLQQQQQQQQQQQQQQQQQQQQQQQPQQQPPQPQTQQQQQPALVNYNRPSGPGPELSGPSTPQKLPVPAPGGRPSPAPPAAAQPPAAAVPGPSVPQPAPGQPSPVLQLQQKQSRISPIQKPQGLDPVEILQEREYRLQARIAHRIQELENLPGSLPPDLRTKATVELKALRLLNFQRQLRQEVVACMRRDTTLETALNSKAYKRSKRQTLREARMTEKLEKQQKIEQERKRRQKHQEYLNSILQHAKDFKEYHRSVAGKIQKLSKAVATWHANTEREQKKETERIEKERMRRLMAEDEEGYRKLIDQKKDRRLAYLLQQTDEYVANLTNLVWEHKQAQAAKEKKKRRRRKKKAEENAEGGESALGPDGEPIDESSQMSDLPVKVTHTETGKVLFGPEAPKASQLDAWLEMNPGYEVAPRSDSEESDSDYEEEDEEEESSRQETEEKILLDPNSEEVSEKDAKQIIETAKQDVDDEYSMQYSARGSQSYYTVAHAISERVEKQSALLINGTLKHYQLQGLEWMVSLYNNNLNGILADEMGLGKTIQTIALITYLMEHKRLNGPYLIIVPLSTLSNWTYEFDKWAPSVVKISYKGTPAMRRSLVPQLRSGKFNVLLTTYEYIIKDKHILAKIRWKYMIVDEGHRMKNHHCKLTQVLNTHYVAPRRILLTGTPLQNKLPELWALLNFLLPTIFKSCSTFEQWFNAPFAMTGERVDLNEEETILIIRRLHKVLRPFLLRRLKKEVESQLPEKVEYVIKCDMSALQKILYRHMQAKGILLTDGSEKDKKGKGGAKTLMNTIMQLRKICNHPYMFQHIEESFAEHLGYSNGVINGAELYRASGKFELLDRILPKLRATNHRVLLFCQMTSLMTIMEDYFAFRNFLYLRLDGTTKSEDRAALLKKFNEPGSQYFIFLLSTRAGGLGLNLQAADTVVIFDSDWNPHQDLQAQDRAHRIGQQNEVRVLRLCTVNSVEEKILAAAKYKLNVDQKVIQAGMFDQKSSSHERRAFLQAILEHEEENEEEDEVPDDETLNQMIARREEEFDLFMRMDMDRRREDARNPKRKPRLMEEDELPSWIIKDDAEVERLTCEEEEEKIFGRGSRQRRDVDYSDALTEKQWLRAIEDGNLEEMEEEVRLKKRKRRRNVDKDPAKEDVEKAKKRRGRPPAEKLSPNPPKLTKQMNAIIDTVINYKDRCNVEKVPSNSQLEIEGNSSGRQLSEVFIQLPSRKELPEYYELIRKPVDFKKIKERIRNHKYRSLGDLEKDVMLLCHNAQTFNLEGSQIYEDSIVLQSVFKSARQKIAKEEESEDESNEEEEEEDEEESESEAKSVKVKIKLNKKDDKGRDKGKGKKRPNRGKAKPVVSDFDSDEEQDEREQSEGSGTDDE

Chain of BRG-1 (P51532 whole entry): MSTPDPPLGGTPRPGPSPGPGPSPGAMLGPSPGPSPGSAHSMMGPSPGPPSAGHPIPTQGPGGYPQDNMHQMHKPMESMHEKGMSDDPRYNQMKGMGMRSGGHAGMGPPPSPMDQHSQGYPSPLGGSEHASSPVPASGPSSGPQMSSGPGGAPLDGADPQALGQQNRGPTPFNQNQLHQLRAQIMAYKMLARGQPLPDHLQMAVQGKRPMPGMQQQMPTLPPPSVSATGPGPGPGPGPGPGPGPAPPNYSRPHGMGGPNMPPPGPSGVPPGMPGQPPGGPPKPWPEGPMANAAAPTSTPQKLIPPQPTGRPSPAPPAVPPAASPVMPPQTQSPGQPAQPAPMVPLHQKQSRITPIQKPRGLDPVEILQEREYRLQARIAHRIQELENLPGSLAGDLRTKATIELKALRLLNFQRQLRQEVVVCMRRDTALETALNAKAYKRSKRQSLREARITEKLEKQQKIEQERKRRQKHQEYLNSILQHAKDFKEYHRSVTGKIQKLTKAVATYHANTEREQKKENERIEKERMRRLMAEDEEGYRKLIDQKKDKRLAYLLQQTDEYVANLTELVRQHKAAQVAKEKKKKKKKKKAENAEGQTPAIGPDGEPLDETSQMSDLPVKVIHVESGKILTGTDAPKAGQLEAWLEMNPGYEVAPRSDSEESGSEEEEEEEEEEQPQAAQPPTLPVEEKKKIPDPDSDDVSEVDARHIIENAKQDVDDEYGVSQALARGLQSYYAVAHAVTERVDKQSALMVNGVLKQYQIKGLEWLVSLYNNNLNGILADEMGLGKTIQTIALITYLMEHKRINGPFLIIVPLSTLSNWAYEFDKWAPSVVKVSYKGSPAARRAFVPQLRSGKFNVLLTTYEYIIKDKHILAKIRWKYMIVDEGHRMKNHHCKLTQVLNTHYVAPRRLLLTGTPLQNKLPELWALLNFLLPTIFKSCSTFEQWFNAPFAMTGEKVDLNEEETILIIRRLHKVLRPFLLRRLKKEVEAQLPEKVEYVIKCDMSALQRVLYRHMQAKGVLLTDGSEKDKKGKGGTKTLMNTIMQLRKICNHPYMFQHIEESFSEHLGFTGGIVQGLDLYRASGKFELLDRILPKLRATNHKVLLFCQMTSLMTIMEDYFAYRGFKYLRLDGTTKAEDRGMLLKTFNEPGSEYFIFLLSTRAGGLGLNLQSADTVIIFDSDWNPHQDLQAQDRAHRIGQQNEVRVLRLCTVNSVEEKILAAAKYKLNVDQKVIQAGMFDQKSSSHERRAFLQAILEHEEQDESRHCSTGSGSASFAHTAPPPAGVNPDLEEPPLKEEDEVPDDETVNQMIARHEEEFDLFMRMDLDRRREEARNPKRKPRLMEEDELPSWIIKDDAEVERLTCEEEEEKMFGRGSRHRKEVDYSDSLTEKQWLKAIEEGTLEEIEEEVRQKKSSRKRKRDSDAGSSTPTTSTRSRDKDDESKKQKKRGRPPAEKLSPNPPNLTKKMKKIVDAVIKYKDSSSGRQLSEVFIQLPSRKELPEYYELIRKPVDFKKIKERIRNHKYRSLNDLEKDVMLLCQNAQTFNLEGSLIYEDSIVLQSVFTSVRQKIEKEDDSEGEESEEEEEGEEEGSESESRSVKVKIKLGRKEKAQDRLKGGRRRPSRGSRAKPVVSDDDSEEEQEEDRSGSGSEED

SMILES | pIC50 (BRG-1) | Emax (BRG-1) [%] | BRM Max % Inhibition (BRM) [%] | IC50 (BRM) [µM] | BRG1 Max % Inhibition (BRG-1; ADP-Glo, 30 nM BRG-1, 400 μM ATP) [%]
C[C@@]1(C#N)COCc2ccc(C(=O)NCc3cc4c(cn3)CCN(c3ccccc3)C4)cc21 [Compound 92] | < 6.00 | 64 | 95 | 0.1 to 0.5 | 
COC(=O)c1cccc(-c2ccc3cnc(CNC(=O)c4ccc5c(c4)[C@](C)(C#N)COC5)cc3n2)c1 [Compound 93] | 6.30 to 7.00 | 93 | 99 | < 0.1 | 
C[C@@]1(C#N)COCc2ccc(C(=O)NCc3cc4nc(C5CC5)ccc4cn3)cc21 [Compound 94] | < 6.00 | 45 | 83 | > 1 | 
C[C@@]1(C#N)COCc2ccc(C(=O)NCc3cc4nc(-c5cc(F)cc(N6CCC6)c5)ccc4cn3)cc21 [Compound 95] | 6.30 to 7.00 | 93 | 99 | < 0.1 | 
O=C(NCc1cc2nc(-c3ccccc3)ccc2cn1)c1cccc(C2(C(F)F)COC2)c1 [Compound 100] | < 6.00 | 25 | 83 | 0.5 to 1 | 
COc1cc(F)cc(-c2ccc3cnc(CNC(=O)c4ccc5c(c4)[C@](C)(C#N)COC5)cc3n2)c1 [Compound 101] | 6.00 to 6.30 | 78 | 98 | < 0.1 | 
C[C@@]1(C#N)COCc2ccc(C(=O)NCc3cc4nc(N5CCCCC5)ccc4cn3)cc21 [Compound 103] | < 6.00 | 71 | 94 | 0.1 to 0.5 | 
Cn1ncc2cc(-c3ccc4cnc(CNC(=O)c5ccc6c(c5)[C@](C)(C#N)COC6)cc4n3)ccc21 [Compound 105] | 6.00 to 6.30 | 87 | 98 | < 0.1 | 
C[C@@]1(C#N)COCc2ccc(C(=O)NCc3cnc4ccc(-c5ccccc5)nc4c3)cc21 [Compound 106] | < 6.00 | 32 | 80 | > 1 | 
C[C@@]1(C#N)COCc2ccc(C(=O)NCc3cc4nc(C5CCOCC5)ccc4cn3)cc21 [Compound 107] | < 6.00 | 16 | 71 | > 1 | 
COc1ccc(-c2ccc3cnc(CNC(=O)c4ccc5c(c4)[C@](C)(C#N)COC5)cc3n2)cc1 [Compound 108] | 6.00 to 6.30 | 91 | 99 | < 0.1 | 
Cn1ncc2ccc(-c3ccc4cnc(CNC(=O)c5ccc6c(c5)[C@](C)(C#N)COC6)cc4n3)cc21 [Compound 110] | 6.00 to 6.30 | 86 | 99 | < 0.1 | 
Cn1ccc(-c2ccc3cnc(CNC(=O)c4ccc5c(c4)[C@](C)(C#N)COC5)cc3n2)n1 [Compound 113] | < 6.00 | 32 | 79 | > 1 | 
C[C@@]1(CO)COCc2ccc(C(=O)NCc3cc4nc(-c5ccccc5)sc4cn3)cc21 [Compound 115] | < 6.00 | 19 | 84 | > 1 | 
C[C@@]1(C#N)COc2ccc(C(=O)NCc3cc4nc(-c5ccccc5)sc4cn3)cc21 [Compound 117] | < 6.00 | 27 | 74 | > 1 | 
C[C@@]1(C#N)CCOc2ccc(C(=O)NCc3cc4nc(-c5ccccc5)sc4cn3)cc21 [Compound 118] | < 6.00 | 40 | 89 | > 1 | 
C[C@@]1(O)COCc2ccc(C(=O)NCc3cc4nc(-c5ccccc5)sc4cn3)cc21 [Compound 119] | < 6.00 | 18 | 81 | > 1 | 
C[C@@]1(C#N)CCNc2ccc(C(=O)NCc3cc4nc(-c5ccccc5)sc4cn3)cc21 [Compound 120] | < 6.00 | 0 | 8 | > 1 | 
COC(=O)N1CCCC(c2ccc3cnc(CNC(=O)c4ccc5c(c4)[C@](C)(C#N)COC5)cc3n2)C1 (some centres unmarked) [Compound 121] | < 6.00 | 44 | 81 | > 1 | 
C[C@@]1(C#N)COCc2ccc(C(=O)NCc3cc4nc(-c5ccccc5)sc4cn3)cc21 [Compound 124] | < 6.00 | 98 | 97 | < 0.1 | 
C[C@@]1(C#N)COCc2ccc(C(=O)NCc3cc4nc(-c5ccc(N6CCC6)cc5)ccc4cn3)cc21 [Compound 125] | 6.00 to 6.30 | 86 | 98 | 0.1 to 0.5 | 
C[C@@]1(C#N)COCc2ccc(C(=O)NCc3cc4nc(-c5cccc(N6CCC6)c5)ccc4cn3)cc21 [Compound 126] | < 6.00 | 51 | 95 | 0.1 to 0.5 | 
COc1cc(C2CCC2)ccc1-c1ccc2cnc(CNC(=O)c3ccc4c(c3)[C@](C)(C#N)COC4)cc2n1 [Compound 127] | 6.00 to 6.30 | 74 | 96 | < 0.1 | 
COCCN1CCC(c2cccc(-c3ccc4cnc(CNC(=O)c5ccc6c(c5)[C@](C)(C#N)COC6)cc4n3)n2)CC1 [Compound 128] | < 6.00 | 39 | 82 | 0.1 to 0.5 | 
Cc1cc2c(-c3ccc4cnc(CNC(=O)c5ccc6c(c5)[C@](C)(C#N)COC6)cc4n3)ccc(F)c2n1C [Compound 129] | > 7.00 | 98 | 100 | < 0.1 | 
C[C@@]1(C#N)COCc2ccc(C(=O)NCc3ncc4ccc(-c5cncc(C6CC6)n5)nc4c3F)cc21 [Compound 130] | 6.30 to 7.00 | 90 | 97 | < 0.1 | 
CN1CCC(c2cccc(-c3ccc4cnc(CNC(=O)c5ccc6c(c5)[C@](C)(C#N)COC6)cc4n3)n2)CC1 [Compound 131] | < 6.00 | 25 | 83 | 0.1 to 0.5 | 
COCCN1CCN(c2cccc(-c3ccc4cnc(CNC(=O)c5ccc6c(c5)[C@](C)(C#N)COC6)cc4n3)n2)CC1 [Compound 132] | 6.00 to 6.30 | 71 | 97 | 0.1 to 0.5 | 
COCCn1c(C)cc2c(-c3ccc4cnc(CNC(=O)c5ccc6c(c5)[C@](C)(C#N)COC6)cc4n3)cccc21 [Compound 133] | > 7.00 | 98 | 102 | < 0.1 | 
CCc1cc2c(-c3ccc4cnc(CNC(=O)c5ccc6c(c5)[C@](C)(C#N)COC6)cc4n3)cccc2n1C [Compound 134] | > 7.00 | 97 | 101 | < 0.1 | 

Now from value to molecule:

pIC50 (BRG-1) | Emax (BRG-1) [%] | BRM Max % Inhibition (BRM) [%] | IC50 (BRM) [µM] | BRG1 Max % Inhibition (BRG-1; ADP-Glo, 30 nM BRG-1, 400 μM ATP) [%] | SMILES
6.00 to 6.30 | 85 | 97 | < 0.1 |  | COc1cccc(-c2ccc3cnc(CNC(=O)c4ccc5c(c4)[C@](C)(C#N)COC5)cc3n2)c1 [Compound 91]
< 6.00 | 20 | 84 | > 1 |  | CN1C[C@@](C)(C#N)c2cc(C(=O)NCc3cc4nc(-c5ccccc5)ccc4cn3)ccc21 [Compound 96]
< 6.00 |  | 93 | 0.1 to 0.5 | 47 | C[C@@]1(C#N)COCc2ccc(C(=O)NCc3cc4nc(-c5ccccc5)ccc4cn3)cc21 [Compound 97]
< 6.00 | 81 | 97 | < 0.1 |  | C[C@@]1(C#N)COCc2ccc(C(=O)NCc3cc4nc(-c5cccc(C(F)F)c5)ccc4cn3)cc21 [Compound 98]
< 6.00 | 22 | 63 | > 1 |  | C[C@@]1(C#N)COc2ccc(C(=O)NCc3cc4nc(-c5ccccc5)ccc4cn3)cc21 [Compound 99]
< 6.00 | 56 | 93 | 0.1 to 0.5 |  | C[C@@]1(C#N)COCc2ccc(C(=O)NCc3cc4nc(-c5ccccn5)ccc4cn3)cc21 [Compound 102]
< 6.00 | 33 | 84 | 0.5 to 1 |  | Cn1cc(-c2ccc3cnc(CNC(=O)c4ccc5c(c4)[C@](C)(C#N)COC5)cc3n2)cn1 [Compound 104]
< 6.00 | 11 | 75 | > 1 |  | C[C@@]1(CO)COCc2ccc(C(=O)NCc3cc4nc(-c5ccccc5)ccc4cn3)cc21 [Compound 109]
6.30 to 7.00 | 93 | 101 | < 0.1 |  | COc1ccccc1-c1ccc2cnc(CNC(=O)c3ccc4c(c3)[C@](C)(C#N)COC4)cc2n1 [Compound 111]
< 6.00 | 55 | 94 | 0.1 to 0.5 |  | C[C@@]1(C#N)COCc2ccc(C(=O)NCc3cc4nc(-c5cccc(C#N)c5)ccc4cn3)cc21 [Compound 112]
< 6.00 | 42 | 86 | 0.5 to 1 |  | C[C@@]1(C#N)COCc2ccc(C(=O)NCc3cc4nc(-c5cccnc5)ccc4cn3)cc21 [Compound 114]
< 6.00 | 22 | 76 | > 1 |  | C[C@@]1(C#N)CCNc2ccc(C(=O)NCc3cc4nc(-c5ccccc5)ccc4cn3)cc21 [Compound 116]
< 6.00 | 62 | 94 | 0.1 to 0.5 |  | C[C@@]1(C#N)COCc2ncc(C(=O)NCc3cc4nc(-c5ccccc5)ccc4cn3)cc21 [Compound 122]
< 6.00 | 74 | 96 | 0.1 to 0.5 |  | C[C@@]1(C#N)COCc2ccc(C(=O)NCc3cc4cc(-c5ccccc5)ccc4cn3)cc21 [Compound 123]

Reference: US12441726B2, “Compounds and uses thereof” (Foghorn Therapeutics Inc., priority 2020, dated 2025)
